Measured values reported in US20040180915A1, “Methadone-containing compositions for parenteral administration and method of use thereof” (priority 2003, published 2004).

Columns and labels:
[1] = test system: microorganisms; details: cited from earlier work
[2] = test system: gram-positive and gram-negative bacteria; details: cited from earlier work
[3] = test system: molds and yeasts; details: relative to activity against bacteria; cited from earlier work
[4] = cited from earlier work
[5] = in vivo; cited from earlier work
[6] = oral vs intramuscular; cited from earlier work
[7] = cited from earlier work; remark: listed apart in the source
[8] = ECG/EKG comparison of QTc intervals in patients on and off treatment
Description: Applicants' also performed a comparison study involving hundreds of EKG's performed on patients treated with IV methadone versus the EKG's of patients not being treated with the IV methadone.

## O=C(O)c1ccccc1 [Benzoic acid]
[1]
  pH range (optimal pH range for activity): 2-5
[2]
  activity against growth of gram-positive and gram-negative bacteria: strongly active
[3]
  activity against growth of molds and yeasts: slightly weaker

## CCCCOC(=O)c1ccc(O)cc1 [Butylparaben]
[1]
  pH range (optimal pH range for activity): 3.0-9.5
[4]
  water solubility: about 0.2%

## COC(=O)c1ccc(O)cc1 [Methylparaben]
[1]
  pH range (optimal pH range for activity): 3.0-9.5
[2]
  activity against growth of gram-positive and gram-negative bacteria: strongly active
[3]
  activity against growth of molds and yeasts: slightly weaker

## CCCOC(=O)c1ccc(O)cc1 [Propylparaben]
[1]
  pH range (optimal pH range for activity): 3.0-9.5

## C/C=C/C=C/C(=O)O [Sorbic acid]
[1]
  pH range (optimal pH range for activity): <6.5
[2]
  activity against growth of gram-positive and gram-negative bacteria: strongly active
[3]
  activity against growth of molds and yeasts: slightly weaker

## CC(C)(O)C(Cl)(Cl)Cl [chlorobutanol]
[5]
  half-life: over 10 days

## CCC(=O)C(CC(C)N(C)C)(c1ccccc1)c1ccccc1 (stereo not drawn) [methadone]
[6]
  total analgesic effects, oral relative to same dose intramuscularly: about 50%
[7]; after subcutaneous injection
  time to appreciable concentrations in plasma: ≤ 10 min
[7]; oral
  time to detection in blood plasma after ingestion: ≤ 30 min
[8]; at least one patient
  QTc prolongation after switch from IV route to oral route: reversed
[8]; orally ingested methadone in a formulation without chlorobutanol
  prolongation in QTc interval times: did not show a similar prolongation

## Benzalkonium chloride
[1]
  pH range (optimal pH range for activity): 4-10
[2]
  activity against growth of gram-positive and gram-negative bacteria: strongly active
[3]
  activity against growth of molds and yeasts: slightly weaker

## Cetrimide
[1]
  pH range (optimal pH range for activity): 4-10
[2]
  activity against growth of gram-positive and gram-negative bacteria: strongly active
[3]
  activity against growth of molds and yeasts: slightly weaker
